How the values were obtained:
[1] = system: MCF7 cells; experiment: ROS levels (DHE, flow cytometry), MCF7; format: cell-based, human; settings: MCF7, 2 × IC50 and 4 × IC50, 48 h
Method: The RKO and MCF7 ROS levels were evaluated through flow cytometry using the dihydroethidium (DHE) probe. RKO and MCF7 cells were seeded in 12-well plates at a density of 1 × 10^5 cells/mL. After 24 h, the cells were treated with the compounds C9, A36, and A42 at 2 × IC50 and 4 × IC50 concentrations or 0.1% DMSO (vehicle). As a control, untreated cells were used. The cells were collected after 48 h of treatment, washed with PBS 1×, and stained for 30 min at 37 °C in the dark using 0.5 μM DHE. The DHE mean fluorescence intensity was analyzed by flow cytometry using the PE-A channel.
Since ROS generation is reported to precede LMP and cell death, and in view of reports showing that some compounds of this family increase intracellular ROS levels under certain circumstances, we also investigated whether C9, A36, and A42 had any effects in this regard.

[2] = system: MCF7 cells; experiment: Sulforhodamine B (SRB) cell viability assay, MCF7; format: cell-based; settings: Homo sapiens, breast cancer cell line, 48 h, read-out: IC50 (μM) ± SD, MCF7
Method: (§1) The cells were allowed to adhere overnight, from 12 h to 18 h, and then treated with increasing concentrations of each compound, C9, A36, and A42 (0.125 μM, 0.25 μM, 0.5 μM, 1 μM, 2.5 μM, and 5 μM), in their respective culture mediums for 48 h. In addition to a negative control that consisted only of cells and growth medium, a negative control containing the highest concentration of the solvent in which the compound was dissolved (DMSO 0.1%) was also used. The SRB assay was performed according to Marques et al.. The IC50 values were obtained using GraphPad Prism version 8.2.1 through the application of a sigmoidal dose–response nonlinear regression, after logarithmic transformation. The selectivity index was determined by dividing the IC50 value of the non-neoplastic BJ-5ta cell line by the IC50 value of the cancer cell lines (IC50 BJ-5ta/IC50 cancer cell line); furthermore, for the CRC model, a second selectivity index was also determined using the non-neoplastic NCM460 cell line (IC50 NCM460/IC50 CRC cell line). According to the results of the selectivity index, the cell line with the highest selectivity value for each of the models, CRC and breast, was selected for subsequent characterization.
(§2) Three CRC-derived cell lines, SW480 (KRAS^G12V), HCT116 (KRAS^G13D), and RKO (BRAF^V600E), harboring somatic mutations on KRAS or BRAF, and two breast-cancer-derived cell lines, MDA-MB-231 (basal like) and MCF7 (luminal A subtype), together with two non-neoplastic cell lines, NCM460 (normal colon mucosal epithelial cell line) and BJ-5ta (normal foreskin fibroblast cell line), were used to study the activity and selectivity of the three new benzo[a]phenoxazine compounds, C9, A36, and A42. All cell lines were treated with a range of drug concentrations (0.125 μM, 0.25 μM, 0.5 μM, 1 μM, 2.5 μM, and 5 μM) for 48 h, and the effect on cell viability was assessed using a sulforhodamine B assay (SRB) (Figure 2). […] In addition, the selectivity index was determined using the BJ-5ta cell line as a reference, as well as the NCM460 cell line for the CRC model (Table 1).

[3] = system: RKO cells; experiment: Intracellular pH evaluation (BCECF-AM, flow cytometry), RKO; format: cell-based, human; settings: 2 × IC50 and 4 × IC50, 48 h
Method: (§3) Evaluations of the intracellular pHs (pHi) of the RKO and MCF7 cells were performed through a flow cytometry optimized protocol using the pH-sensitive probe BCECF-AM. RKO and MCF7 cells were seeded in 12-well plates at a density of 1 × 10^5 cells/mL. After 24 h, the cells were treated with the compounds C9, A36, and A42 at 2 × IC50 and 4 × IC50 concentrations or 0.1% DMSO (vehicle). As a control, untreated cells were used. Attached and floating cells were collected, washed, and then resuspended in Hank’s balanced salt solution (HBSS) after a 48 h treatment period. After that, the cells were stained with 1 μM of BCECF-AM for 30 min at 37 °C. The samples were analyzed by flow cytometry. The FITC-A and PE-A channels were used to detect the fluorescence mean of BCECF-AM.
(§4) To further support LMP’s role in cell death induction, we investigated the effects of the compounds on intracellular pH (pHi), as LMP induction is associated with an increase in cytosolic proton levels and, as a result, a reduction in intracellular pH [67, 68, 69]. We used the dual-emission ratiometric pH-sensitive probe BCECF-AM, which emits fluorescence based on pHi. The result of acidification was shown by a decrease in the fluorescence ratio between BCECF-AM green (FITC-FL1) and red fluorescence (PE-FL2) (FL1/FL2). […]

[4] = system: SW480 cells; experiment: Sulforhodamine B (SRB) cell viability assay, SW480; format: cell-based; settings: Homo sapiens, CRC cell line, 48 h, read-out: IC50 (μM) ± SD, SW480
Method: as §1, §2

[5] = system: MCF7 cells; experiment: Intracellular pH evaluation (BCECF-AM, flow cytometry), MCF7; format: cell-based, human; settings: MCF7, 2 × IC50 and 4 × IC50, 48 h
Method: as §3, §4

[6] = system: RKO cells; experiment: Annexin V/PI assay (flow cytometry), RKO; format: cell-based, human; settings: 2 × IC50 and 4 × IC50, 48 h
Method: RKO and MCF7 cells were seeded in 12-well plates at a density of 1 × 10^5 cells/mL. After 24 h, the cells were treated with C9, A36, and A42 at 2 × IC50 and 4 × IC50 concentrations or 0.1% DMSO (vehicle). Untreated cells were used as controls. After 48 h, floating and adherent cells were collected. The cells were resuspended in […] of binding buffer and treated for 15 min in the dark with 5 μL of Annexin V-FITC (Detection Kit-ab14085) and 5 μL of Propidium Iodide (50 μg/mL). The samples were subjected to flow cytometry analysis, PI fluorescence was detected using the ECD-A channel, and Annexin V fluorescence was detected using the FITC-A channel.
One of the main goals of clinical oncology is the development of compounds and treatments capable of selectively eliminating cancer cells. In this sense, we next evaluated the capability of the compounds to induce cell death in both cell lines. For this, we performed a flow cytometry analysis using annexin V-FITC and propidium iodide PI double staining. The conjugation of these two probes allowed for the discrimination of viable (negative for both), early apoptotic (annexin + and PI−), late apoptotic (annexin+ and PI+), and necrotic (annexin− and PI+) cells. […] Both flouting and attached cells were harvested and double stained.

[7] = system: BJ-5ta cells; experiment: Sulforhodamine B (SRB) cell viability assay, BJ-5ta; format: cell-based; settings: Homo sapiens, non-neoplastic cell line, 48 h, read-out: IC50 (μM) ± SD, BJ-5ta
Method: as §1, §2

Structure (SMILES): CCCNc1cc2oc3cc(=NCC)c(C)cc-3nc2c2ccccc12 [C9]
- ROS levels (fluorescence mean of DHE) [1]: higher intensity
- IC50 [2]: 0.84 ± 0.06 µM
- Intracellular acidification (BCECF-AM FL1/FL2 ratio) [3]: most pronounced effect
- IC50 [4]: 0.78 ± 0.09 µM
- Intracellular acidification (BCECF-AM FL1/FL2 ratio) [5]: most pronounced effect
- Cell death induction (Annexin V/PI) [6]: most powerful compounds
- IC50 [7]: 2.55 ± 0.15 µM

From paper PMC11352945, “Anticancer Activity of Benzo[a]phenoxazine Compounds Promoting Lysosomal Dysfunction” (Cells, 2024)
